Results as given in patent publication US20120305476A1, “TREATMENT METHOD FOR REDUCING THE PRODUCTION OF AN H2S COMPOUND IN AQUEOUS EFFLUENTS PASSING INTO A PIPE” (CENTRE NATIONAL DE LA RECHERCHE SCIENTIFIQUE (CNRS), priority 2010, published 2012).
Like-named read-outs stand apart in the source and are kept apart here.

Tests used:
[1] = tested on: Desulfovibrio vulgaris Hindelborough (DvH); assay: H2S production by stationary-phase DvH culture on lactate/sulfate medium with metabolic inhibitors; type: cell-based; settings: for effect of metabolic inhibitor on DvH culture / H2S production: tested at different concentrations
Procedure: Experiments were carried out with the SRB bacterium Desulfovibrio vulgaris Hindelborough (DvH) for which the genome has been sequenced and which is the model system for the study of sulfate-reducing bacteria.
The culture medium was a lactate/sulfate medium comprising: sodium sulfate 28 mM, magnesium sulfate 8 mM, lactate 45 mM and oligoelements (iron, Zn, Mn, Cu, Co, Mo, Ni, Se, W, Mg).
Various metabolic inhibitors were tested at different concentrations; examples were the addition of iron, oxygen, or a detergent. […] The study was continued by looking at the effect of adding small defined quantities of nitrite and nitrate on the production of H2S by the SRB.

[2] = tested on: DvH+Shewanella consortium; settings: 5 mM; for production of H2S: FIG. 3 panel B
Text: FIG. 3 represents the effect of adding exogenous bacteria of the Shewanella type on the growth of a strain of sulfate-reducing bacteria, DvH, in the presence of nitrate or nitrite (panel A, %=quantity of biomass expressed as a % of the optical density (OD) at 600 nm [nanometers], such that 100% represents the OD at 600 nm for the biomass of a culture of DvH on a lactate/sulfate medium in the absence of treatment) and on the production of H2S (panel B, mM H2S). The control (growth and production of H2S) used a DvH culture with or without the addition of inhibitor. The effect of adding the Shewanella bacteria on the growth and production of H2S is presented in the presence of nitrate (+nitrite) and in the absence of nitrite (nitrite). The Shewanella bacteria alone had no significant effect on H2S production. In FIG. 3, the various symbols represent the experiments under the following conditions: ? =5 mM of nitrate on a DvH+Shewanella consortium, ? =consortium of DvH+Shewanella bacteria in the presence of 5 mM of nitrite, ? =presence of DvH bacteria alone, ? =presence of DvH bacteria alone+nitrite;
A wide range of non-pathogenic aerobic and anaerobic bacteria known to be decontaminants that are compatible with a toxic environment was tested, including the following Gram− aerobic bacteria: Shewanella oneidensis, Rhodobacter sphaeroides, Rhodobacter denitrificans, R. velkampi, Pseudomonas stutzeri, Pseudomonas zobell and Rhospeudomonas palustri, as well as the following anaerobic Gram+ bacteria: Bacillus mojavensis and Bacillus amiloliquefaciens.
However, it has been discovered that it is possible to overcome this bactericidal effect problem by adding exogenic bacteria.

[3] = tested on: bacteria from the sludge sample (Shigella/Escherichia coli/Salmonella, Clostridium, Desulfovibrio type)
[4] = tested on: SRB bacteria that produce H2S; settings: treatment with nitrite alone; cited from earlier work
[5] = tested on: sulfate-reducing bacteria (SRB)
Procedure: Experiments were carried out on a sewerage system diagrammatically shown in FIG. 6, comprising a cesspool 3 supplied with effluent 1 from a conduit 11, a lifting pump 4 that was used to supply a force main 2 from the cesspool 3 to a holding tank 8 cooperating with a gravity fed transfer conduit 9 to a treatment plant (not shown).
The force main 2 was 1170 m [meter] long with a nominal diameter of 250 mm [millimeter], giving a volume of 57.5 m^3. The delivery of the lifting pump was 150 m^3/hour. A nitrite tank 12 cooperated with a dosing pump 7 to inject nitrite into the effluents entering the force main 2.
Sodium nitrite NaNO2 was tested in 40% by weight solution with a density of 1.3. This reagent was injected directly into the effluent pumping pit almost level with the inlet thereof into the force main via a dedicated dosing pump 7 that could reach a delivery of up to 14 L/h. Start-up of the dosing pump 7 was linked with that of the lifting pump 4 with the two pumps being stopped by a low level of effluents in the cesspool 3.
Various measurements for the concentration of sulfide in water leaving the force main were carried out. The concentration of sulfide in water was determined by means of an assay kit using the reaction of H2S with aniline forming a colorless intermediate that is oxidized by ferric ions to a colored compound: methylene blue, an optical disk comparator with a color gradient, was used to determine the concentration of sulfide in the solution as a function of its color. The temperatures of the effluent and redox potential were measured at the holding tank or settling tank 8 using standard equipment.

[6] = tested on: Desulfovibrio vulgaris Hindelborough (DvH); settings: SRB pure strain (DvH alone), FIG. 2
Text: FIG. 2 represents the relationship between the quantity of biomass (%) and the production of H2S (mM) for a stationary phase culture of DvH bacteria in the presence of different concentrations of nitrites or nitrates in the culture medium. The quantity of biomass (bacterial survival) is expressed as the % optical density (OD) at 600 nm [nanometer] compared with the OD at 600 nm of the biomass for a DvH culture on a lactate/sulfate medium in the absence of treatment, this culture representing 100%;
In FIG. 2, the quantities of biomass (% growth) and production of H2S (mM) are shown under the following conditions: ? =% growth+nitrite, ? =H2S production+nitrite, ? =% growth+nitrate, ? H2S production+nitrate;
In FIG. 2, bacterial survival was monitored.

[Fe] [iron]
effect of metabolic inhibitor on DvH culture / H2S production [1]: induced a drastic oxidizing stress and caused bacterial death

O=[N+]([O-])O [nitrate]
concentration giving visible and substantial inhibition of H2S production [1]: 15 mM | reduction of the production of H2S [1]: approximately 90% | production of H2S [2]: no significant reduction in H2S production was observed

O=NO [nitrite]
concentration giving visible and substantial inhibition of H2S production [1]: ≥ 5 mM | reduction of the production of H2S [1]: approximately 90% | biomass (bactericidal effect) ([3]; beyond 5 mM of nitrite): biomass was slightly affected | inhibiting effect on H2S production ([3]; beyond 5 mM of nitrite): inhibiting effect on H2S production reduced | cell death ([3]; even in the absence of Shewanella, concentration 5 mM or less): did not induce cell death | duration of the effect on the bacteria after nitrite is consumed ([3]; nitrite consumed over time): long-lasting effect or remanence effect | concentration from which a drop in the production of H2S is induced ([3]; sludge sample): ≥ 3 mM | effect on hydrogen sulfide production [4]: No effect on hydrogen sulfide production is observed | rise in the sulfide concentrations after stopping the nitrite treatment ([5]; after 24 h): no more than 25% | rise in the sulfide concentrations after stopping the nitrite treatment ([5]; after stopping treatment): approximately 10% | biomass ([2]; FIG. 3 panel A): maintaining the biomass | production of H2S [2]: reduction in the production of H2S

O=O [oxygen]
effect of metabolic inhibitor on DvH culture / H2S production [1]: production of H2S restarted as soon as the redox potential of the medium became negative again

O=NO [sodium nitrite]
bacterial survival [6]: lethal effect on bacteria | maximum quantity of dissolved sulfide H2S at the outlet from the force main ([5]; 2.5 g/m^3 to 6 g/m^3 per g/m^3 of sulfide to be reduced, every other day or overnight): ≤ 1.5 mg/L | quantity of dissolved sulfites at the force main outlet ([5]; 4 g to 5 g per gram of dissolved sulfide produced in the absence of treatment): ≤ 1 mg/L | reduction of dissolved sulfide produced by the conduit ([5]; daily treatments with 2.5 g/m^3 to 6 g/m^3 of NaNO2): 1 g/m^3 | remanence of inhibiting activity ([5]; on-site, transient and intermittent treatment): remanence effect
